Results as given in PubChem BioAssay (NCI).
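Five concentrations, 48 hours, 96-well plates. TGI is the concentration that stops growth completely.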

Experiments:
Test in all cases: DTP human tumour cell line panel, 48 h
COLO 205 colon = system: COLO 205 colon
OVCAR-4 ovarian = system: OVCAR-4 ovarian
OVCAR-5 ovarian = system: OVCAR-5 ovarian
SK-OV-3 ovarian = system: SK-OV-3 ovarian
UACC-257 melanoma = system: UACC-257 melanoma
OVCAR-8 ovarian = system: OVCAR-8 ovarian
PC-3 prostate = system: PC-3 prostate
HS 578T breast = system: HS 578T breast
RPMI-8226 leukemia = system: RPMI-8226 leukemia
SF-295 CNS = system: SF-295 CNS
NCI-H23 lung = system: NCI-H23 lung
U251 CNS = system: U251 CNS
TK-10 renal = system: TK-10 renal
DU-145 prostate = system: DU-145 prostate
SN12C renal = system: SN12C renal
MDA-MB-231 breast = system: MDA-MB-231 breast
MDA-MB-435 = system: MDA-MB-435
SK-MEL-28 melanoma = system: SK-MEL-28 melanoma
SK-MEL-2 melanoma = system: SK-MEL-2 melanoma
NCI-H460 lung = system: NCI-H460 lung
ACHN renal = system: ACHN renal
OVCAR-3 ovarian = system: OVCAR-3 ovarian
HCT-15 colon = system: HCT-15 colon
SW-620 colon = system: SW-620 colon
A498 renal = system: A498 renal
CAKI-1 renal = system: CAKI-1 renal
MCF7 breast = system: MCF7 breast
HL-60(TB) leukemia = system: HL-60(TB) leukemia
HT29 colon = system: HT29 colon
CCRF-CEM leukemia = system: CCRF-CEM leukemia
HCT-116 colon = system: HCT-116 colon
NCI-H522 lung = system: NCI-H522 lung
SK-MEL-5 melanoma = system: SK-MEL-5 melanoma
A549 NSCLC = system: A549 NSCLC
M14 melanoma = system: M14 melanoma
NCI/ADR-RES ovarian = system: NCI/ADR-RES ovarian
T-47D breast = system: T-47D breast
LOX IMVI melanoma = system: LOX IMVI melanoma
SNB-75 CNS = system: SNB-75 CNS
HOP-62 NSCLC = system: HOP-62 NSCLC
SR leukemia = system: SR leukemia
IGROV1 ovarian = system: IGROV1 ovarian
MDA-N = system: MDA-N
K-562 leukemia = system: K-562 leukemia

Question: How did the TGI (COLO 205 colon) turn out when `COP(=O)(OC)/C(=C/c1cn(C(C)=O)c2ccccc12)NC(C)=O` was run?
Answer: > 100 µM

Question: What about the TGI (OVCAR-4 ovarian) of the same compound?
Answer: > 100 µM

Question: And the TGI (OVCAR-5 ovarian)?
Answer: > 100 µM

Question: What about the TGI (SK-OV-3 ovarian) of the same compound?
Answer: > 100 µM

Question: What about the TGI (UACC-257 melanoma) of the same compound?
Answer: > 100 µM

Question: And the TGI (OVCAR-8 ovarian)?
Answer: > 100 µM

Question: And the TGI (PC-3 prostate)?
Answer: > 100 µM

Question: What about the TGI (HS 578T breast) of the same compound?
Answer: > 100 µM

Question: And the TGI (RPMI-8226 leukemia)?
Answer: 45.3 µM

Question: And the TGI (SF-295 CNS)?
Answer: > 100 µM

Question: And the TGI (NCI-H23 lung)?
Answer: > 100 µM

Question: And the TGI (U251 CNS)?
Answer: > 100 µM

Question: And the TGI (TK-10 renal)?
Answer: > 100 µM

Question: What about the TGI (DU-145 prostate) of the same compound?
Answer: > 100 µM

Question: What about the TGI (SN12C renal) of the same compound?
Answer: > 100 µM

Question: What about the TGI (MDA-MB-231 breast) of the same compound?
Answer: > 100 µM

Question: And the TGI (MDA-MB-435)?
Answer: > 100 µM

Question: What about the TGI (SK-MEL-28 melanoma) of the same compound?
Answer: > 100 µM

Question: And the TGI (SK-MEL-2 melanoma)?
Answer: > 100 µM

Question: What about the TGI (NCI-H460 lung) of the same compound?
Answer: > 100 µM

Question: And the TGI (ACHN renal)?
Answer: > 100 µM

Question: What about the TGI (OVCAR-3 ovarian) of the same compound?
Answer: 66.2 µM

Question: And the TGI (HCT-15 colon)?
Answer: 66.4 µM

Question: What about the TGI (SW-620 colon) of the same compound?
Answer: > 100 µM

Question: And the TGI (A498 renal)?
Answer: 94.3 µM

Question: And the TGI (CAKI-1 renal)?
Answer: > 100 µM

Question: And the TGI (MCF7 breast)?
Answer: > 100 µM

Question: What about the TGI (HL-60(TB) leukemia) of the same compound?
Answer: 42.6 µM

Question: And the TGI (HT29 colon)?
Answer: > 100 µM

Question: And the TGI (CCRF-CEM leukemia)?
Answer: 58.3 µM

Question: And the TGI (HCT-116 colon)?
Answer: > 100 µM

Question: What about the TGI (NCI-H522 lung) of the same compound?
Answer: > 100 µM

Question: And the TGI (SK-MEL-5 melanoma)?
Answer: > 100 µM

Question: What about the TGI (A549 NSCLC) of the same compound?
Answer: > 100 µM

Question: And the TGI (M14 melanoma)?
Answer: > 100 µM

Question: What about the TGI (NCI/ADR-RES ovarian) of the same compound?
Answer: > 100 µM

Question: And the TGI (T-47D breast)?
Answer: > 100 µM

Question: And the TGI (LOX IMVI melanoma)?
Answer: 41.9 µM

Question: And the TGI (SNB-75 CNS)?
Answer: > 100 µM

Question: What about the TGI (HOP-62 NSCLC) of the same compound?
Answer: > 100 µM

Question: What about the TGI (SR leukemia) of the same compound?
Answer: > 100 µM

Question: And the TGI (IGROV1 ovarian)?
Answer: > 100 µM

Question: What about the TGI (MDA-N) of the same compound?
Answer: 36.3 µM

Question: What about the TGI (K-562 leukemia) of the same compound?
Answer: > 100 µM
